Test results as given in patent US12252524B2, “GIP/GLP1 co-agonist compounds” (Eli Lilly and Company, priority 2018, dated 2025).
Numbered stars: 1 amine (or outer) side, 2 acyl side, 3 side chain; on linkers, the order of the positions; unused ones are H or OH. Square brackets hold non-standard residues; d marks the D form. Side chains are listed from the residue outwards. Peptide text beside a SMILES is read from it. * marks the point of attachment. C20 diacid = O=C(O)CCCCCCCCCCCCCCCCCCC(=O)*; γGlu = O=C(O)[C@H](CCC(=O)[*:2])N[*:1]; αMeF = C[C@](N)(Cc1ccccc1)C(=O)O; αMeL = CC(C)C[C@](C)(N)C(=O)O; AEEA = NCCOCCOCC(=O)O; Aib = CC(C)(N)C(=O)O

What was measured:
[1] = target: human GLP-1 receptor (GLP-1R) (Homo sapiens, UniProt P43220); experiment: cAMP pharmacological functional assay in presence of casein, hGLP-1R; format: cell-based; details: HEK293 cells expressing hGLP-1R, 0.1% Casein, geometric mean; read-out: hGLP1R cAMP Rel EC50 nM (SEM, n)
Sequence of human GLP-1 receptor (GLP-1R) (P43220 24-463): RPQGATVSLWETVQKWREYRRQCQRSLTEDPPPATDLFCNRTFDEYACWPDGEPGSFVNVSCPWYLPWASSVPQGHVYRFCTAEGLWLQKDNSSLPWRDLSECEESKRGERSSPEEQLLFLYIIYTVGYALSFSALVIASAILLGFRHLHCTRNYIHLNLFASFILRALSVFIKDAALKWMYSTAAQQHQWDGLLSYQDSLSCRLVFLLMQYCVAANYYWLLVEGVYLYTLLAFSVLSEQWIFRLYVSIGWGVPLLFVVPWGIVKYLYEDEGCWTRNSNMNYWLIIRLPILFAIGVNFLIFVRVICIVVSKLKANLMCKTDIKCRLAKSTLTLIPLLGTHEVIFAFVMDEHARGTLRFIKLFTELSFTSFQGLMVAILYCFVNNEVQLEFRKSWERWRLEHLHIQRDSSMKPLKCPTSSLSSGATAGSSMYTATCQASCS

human GLP-1R = human GLP-1R (Homo sapiens, UniProt P43220); experiment: [125I]-GLP-1 binding (SPA), human GLP-1 receptor; set-up: expressed in transfected cells; crude membranes; details: read-out: hGLP1R Ki, (nM) (SEM, n)
Sequence of human GLP-1R (P43220 24-463): as above
How it was run: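 Membranes: hypotonic lysis (50 mM Tris HCl, pH 7.5, protease inhibitors), Potter-Elvehjem homogenization, high-speed pellet (35000×g 1 h or 25000×g 30 min, 4° C.). Buffer: 25 mM HEPES pH 7.4, 2.5 mM CaCl2, 1 mM MgCl2. Four-parameter IC50 fit; Ki as geometric mean ± SEM.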

human Gcg receptor = target: T1, human Gcg receptor (Homo sapiens, UniProt P47871); experiment: [125I]-Glucagon binding (SPA), human Gcg receptor; details: read-out: hGLcgR Ki, nM (SEM, n)
T1 construct: expressed in transfected cells; crude membranes
T1 sequence (P47871 26-477): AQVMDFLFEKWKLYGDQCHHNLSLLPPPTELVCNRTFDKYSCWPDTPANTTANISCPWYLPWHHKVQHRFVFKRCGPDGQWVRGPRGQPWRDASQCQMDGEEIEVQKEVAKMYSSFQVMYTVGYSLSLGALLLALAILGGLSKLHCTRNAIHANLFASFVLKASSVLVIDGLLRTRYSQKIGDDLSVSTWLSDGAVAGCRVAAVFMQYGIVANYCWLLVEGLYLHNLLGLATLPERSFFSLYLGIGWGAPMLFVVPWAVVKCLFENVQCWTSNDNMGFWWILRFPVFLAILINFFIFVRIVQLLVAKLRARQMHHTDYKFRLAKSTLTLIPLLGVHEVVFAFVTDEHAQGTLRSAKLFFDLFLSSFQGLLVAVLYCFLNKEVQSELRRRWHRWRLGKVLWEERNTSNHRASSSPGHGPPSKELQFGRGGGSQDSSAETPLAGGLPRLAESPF
How it was run: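 Crude membranes from cells expressing the receptor, prepared by hypotonic lysis in 50 mM Tris HCl pH 7.5 with protease inhibitors, homogenization and differential centrifugation, were used in a WGA-bead SPA. Binding buffer: 25 mM HEPES pH 7.4, 2.5 mM CaCl2, 1 mM MgCl2, bacitracin, Tween-20.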

human GIP receptor = target: T2, human GIP receptor (Homo sapiens, UniProt P48546); experiment: [125I]-GIP binding (SPA), human GIP receptor; details: read-out: hGIPR Ki, nM (SEM, n)
T2 construct: expressed in transfected cells; crude membranes
T2 sequence (P48546 22-466): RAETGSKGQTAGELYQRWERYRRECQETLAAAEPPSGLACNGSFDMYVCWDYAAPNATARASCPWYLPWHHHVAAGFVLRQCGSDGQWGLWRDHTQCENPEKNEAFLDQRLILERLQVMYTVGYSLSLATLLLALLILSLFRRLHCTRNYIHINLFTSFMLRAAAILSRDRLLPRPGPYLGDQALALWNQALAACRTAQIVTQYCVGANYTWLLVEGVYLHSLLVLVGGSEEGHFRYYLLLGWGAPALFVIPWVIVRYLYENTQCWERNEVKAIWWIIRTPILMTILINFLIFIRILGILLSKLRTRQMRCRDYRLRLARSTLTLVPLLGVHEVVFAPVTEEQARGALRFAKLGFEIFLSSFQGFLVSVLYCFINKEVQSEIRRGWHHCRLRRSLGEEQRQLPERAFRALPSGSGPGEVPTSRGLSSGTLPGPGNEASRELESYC

[2] = target: T3, gastric inhibitory peptide receptor (GIPR) (Homo sapiens, UniProt P48546); experiment: cAMP pharmacological functional assay in presence of casein, hGIPR; format: cell-based; details: HEK293 cells expressing hGIPR, 0.1% Casein, geometric mean; read-out: hGIPR cAMP Rel EC50 nM (SEM, n)
T3 sequence (P48546 22-466): T2 sequence (P48546 22-466)

SMILES	EC50 [1] [nM]	Ki (human GLP-1R) [nM]	Ki (human Gcg receptor) [nM]	Ki (human GIP receptor) [nM]	EC50 [2] [nM]
CC[C@H](C)[C@H](NC(=O)[C@H](Cc1ccccc1)NC(=O)[C@H](C)NC(=O)C(C)(C)NC(=O)[C@H](CCC(N)=O)NC(=O)[C@H](C)NC(=O)[C@H](CCCCNC(=O)COCCOCCNC(=O)COCCOCCNC(=O)CC[C@H](NC(=O)CCCCCCCCCCCCCCCCCCC(=O)O)C(=O)O)NC(=O)[C@H](CCC(=O)O)NC(=O)[C@H](CC(=O)O)NC(=O)[C@H](CC(C)C)NC(=O)[C@](C)(CC(C)C)NC(=O)[C@@H](NC(=O)[C@H](CO)NC(=O)[C@H](Cc1ccc(O)cc1)NC(=O)[C@H](CC(=O)O)NC(=O)[C@H](CO)NC(=O)[C@@H](NC(=O)[C@H](Cc1ccccc1)NC(=O)[C@@H](NC(=O)CNC(=O)[C@H](CCC(=O)O)NC(=O)C(C)(C)NC(=O)[C@@H](N)Cc1ccc(O)cc1)[C@@H](C)O)[C@@H](C)O)[C@@H](C)CC)C(=O)N[C@@H](CCC(=O)O)C(=O)N[C@@H](Cc1ccc(O)cc1)C(=O)N[C@@H](CC(C)C)C(=O)N[C@@H](CC(C)C)C(=O)N[C@@H](CCC(=O)O)C(=O)NCC(=O)NCC(=O)N1CCC[C@H]1C(=O)N[C@@H](CO)C(=O)N[C@@H](CO)C(=O)NCC(=O)N[C@@H](C)C(=O)N1CCC[C@H]1C(=O)N1CCC[C@H]1C(=O)N1CCC[C@H]1C(=O)N[C@@H](CO)C(N)=O [Example 66] (H-Y[Aib]EGTFTSDYSI[αMeL]LDEK([AEEA-AEEA-γGlu-C20 diacid])AQ[Aib]AFIEYLLEGGPSSGAPPPS-NH2)	0.285	7.53	93.7	0.106	0.0743
CC[C@H](C)[C@H](NC(=O)[C@H](CC(C)C)NC(=O)[C@H](Cc1ccc(O)cc1)NC(=O)[C@H](CCC(=O)O)NC(=O)[C@@H](NC(=O)[C@H](Cc1ccccc1)NC(=O)[C@H](CCC(=O)O)NC(=O)C(C)(C)NC(=O)[C@H](CCC(N)=O)NC(=O)[C@H](C)NC(=O)[C@H](CCCCNC(=O)COCCOCCNC(=O)COCCOCCNC(=O)CC[C@H](NC(=O)CCCCCCCCCCCCCCCCCCC(=O)O)C(=O)O)NC(=O)[C@H](CCC(=O)O)NC(=O)[C@H](CC(=O)O)NC(=O)[C@H](CC(C)C)NC(=O)[C@](C)(CC(C)C)NC(=O)[C@@H](NC(=O)[C@H](CO)NC(=O)[C@H](Cc1ccc(O)cc1)NC(=O)[C@H](CC(=O)O)NC(=O)[C@H](CO)NC(=O)[C@@H](NC(=O)[C@](C)(Cc1ccccc1)NC(=O)[C@@H](NC(=O)CNC(=O)[C@H](CCC(=O)O)NC(=O)C(C)(C)NC(=O)[C@@H](N)Cc1ccc(O)cc1)[C@@H](C)O)[C@@H](C)O)[C@@H](C)CC)[C@@H](C)CC)C(=O)N[C@@H](CCC(=O)O)C(=O)NCC(=O)NCC(=O)N1CCC[C@H]1C(=O)N[C@@H](CO)C(=O)N[C@@H](CO)C(=O)NCC(N)=O [Example 124] (H-Y[Aib]EGT[αMeF]TSDYSI[αMeL]LDEK([AEEA-AEEA-γGlu-C20 diacid])AQ[Aib]EFIEYLIEGGPSSG-NH2)	0.0475	4.87	41.5	0.0424	0.0762
CC[C@H](C)[C@H](NC(=O)[C@H](CC(C)C)NC(=O)[C@H](Cc1ccc(O)cc1)NC(=O)[C@H](CCC(=O)O)NC(=O)[C@@H](NC(=O)[C@H](Cc1ccccc1)NC(=O)[C@H](C)NC(=O)C(C)(C)NC(=O)[C@H](CCC(N)=O)NC(=O)[C@H](C)NC(=O)[C@H](CCCCNC(=O)CCCCCCCNC(=O)COCCOCCNC(=O)CC[C@H](NC(=O)CCCCCCCCCCCCCCCCCCC(=O)O)C(=O)O)NC(=O)[C@H](CCCCN)NC(=O)[C@H](CC(=O)O)NC(=O)[C@H](CC(C)C)NC(=O)[C@H](CC(C)C)NC(=O)[C@@H](NC(=O)[C@H](CO)NC(=O)[C@H](Cc1ccc(O)cc1)NC(=O)[C@H](CC(=O)O)NC(=O)[C@H](CO)NC(=O)[C@@H](NC(=O)[C@H](Cc1ccccc1)NC(=O)[C@@H](NC(=O)CNC(=O)[C@H](CCC(=O)O)NC(=O)C(C)(C)NC(=O)[C@@H](N)Cc1ccc(O)cc1)[C@@H](C)O)[C@@H](C)O)[C@@H](C)CC)[C@@H](C)CC)C(=O)N[C@@H](CCC(=O)O)C(=O)NCC(=O)NCC(=O)N1CCC[C@H]1C(=O)N[C@@H](CO)C(=O)N[C@@H](CO)C(=O)NCC(=O)N[C@@H](C)C(=O)N1CCC[C@H]1C(=O)N1CCC[C@H]1C(=O)N1CCC[C@H]1C(=O)N[C@@H](CO)C(N)=O [Example 109]	0.35	1.34	43.1	0.0279	0.109
CC[C@H](C)[C@H](NC(=O)[C@H](CCCCN)NC(=O)[C@H](CC(=O)O)NC(=O)[C@H](CC(C)C)NC(=O)[C@H](CC(C)C)NC(=O)[C@@H](NC(=O)[C@H](CO)NC(=O)[C@H](Cc1ccc(O)cc1)NC(=O)[C@H](CC(=O)O)NC(=O)[C@H](CO)NC(=O)[C@@H](NC(=O)[C@H](Cc1ccccc1)NC(=O)[C@@H](NC(=O)CNC(=O)[C@H](CCC(=O)O)NC(=O)C(C)(C)NC(=O)[C@@H](N)Cc1ccc(O)cc1)[C@@H](C)O)[C@@H](C)O)[C@@H](C)CC)C(=O)N[C@@H](C)C(=O)N[C@@H](CCC(N)=O)C(=O)NC(C)(C)C(=O)N[C@@H](C)C(=O)N[C@@H](Cc1ccccc1)C(=O)N[C@@H](CCCCNC(=O)COCCOCCNC(=O)COCCOCCNC(=O)CC[C@H](NC(=O)CCCCCCCCCCCCCCCCCCC(=O)O)C(=O)O)C(=O)N[C@@H](CCC(=O)O)C(=O)N[C@@H](Cc1ccc(O)cc1)C(=O)N[C@@H](CC(C)C)C(=O)N[C@H](C(=O)N[C@@H](CCC(=O)O)C(=O)NCC(=O)NCC(=O)N1CCC[C@H]1C(=O)N[C@@H](CO)C(=O)N[C@@H](CO)C(=O)NCC(=O)N[C@@H](C)C(=O)N1CCC[C@H]1C(=O)N1CCC[C@H]1C(=O)N1CCC[C@H]1C(=O)N[C@@H](CO)C(N)=O)[C@@H](C)CC [Example 33] (H-Y[Aib]EGTFTSDYSILLDKIAQ[Aib]AFK([AEEA-AEEA-γGlu-C20 diacid])EYLIEGGPSSGAPPPS-NH2; N-terminus assumed)	251	361	> 979	6.4	63.3
CC[C@H](C)[C@H](NC(=O)[C@H](CC(C)C)NC(=O)[C@H](Cc1ccc(O)cc1)NC(=O)[C@H](CCC(=O)O)NC(=O)[C@@H](NC(=O)[C@H](Cc1ccccc1)NC(=O)[C@H](CC(=O)O)NC(=O)C(C)(C)NC(=O)[C@H](CCC(N)=O)NC(=O)[C@H](C)NC(=O)[C@H](CCCCNC(=O)COCCOCCNC(=O)COCCOCCNC(=O)CC[C@H](NC(=O)CCCCCCCCCCCCCCCCCCC(=O)O)C(=O)O)NC(=O)[C@H](CCCCN)NC(=O)[C@H](CC(=O)O)NC(=O)[C@H](CC(C)C)NC(=O)[C@](C)(CC(C)C)NC(=O)[C@@H](NC(=O)[C@H](CO)NC(=O)[C@H](Cc1ccc(O)cc1)NC(=O)[C@H](CC(=O)O)NC(=O)[C@H](CO)NC(=O)[C@@H](NC(=O)[C@](C)(Cc1ccccc1)NC(=O)[C@@H](NC(=O)CNC(=O)[C@H](CCC(=O)O)NC(=O)C(C)(C)NC(=O)[C@@H](N)Cc1ccc(O)cc1)[C@@H](C)O)[C@@H](C)O)[C@@H](C)CC)[C@@H](C)CC)C(=O)N[C@@H](CCC(=O)O)C(=O)NCC(=O)NCC(=O)N1CCC[C@H]1C(=O)N[C@@H](CO)C(=O)N[C@@H](CO)C(=O)NCC(=O)N[C@@H](C)C(=O)N1CCC[C@H]1C(=O)N1CCC[C@H]1C(=O)N1CCC[C@H]1C(=O)N[C@@H](CO)C(N)=O [Example 140] (H-Y[Aib]EGT[αMeF]TSDYSI[αMeL]LDKK([AEEA-AEEA-γGlu-C20 diacid])AQ[Aib]DFIEYLIEGGPSSGAPPPS-NH2)	0.0424	1.46	175	0.0474	0.0349
